Laboratory results: PubChem BioAssay AID1963833 (Molecular Pharmacology Branch, DTP, NCI, 2024)
Where “and” joins values, the source holds several entries; their conditions need not be identical. Identical values can stand only once.

Test system: 883617-216-R-J1-PDC complex spheroid viability
Assay: Anticancer human tumor 883617-216-R-J1-PDC patient-derived bladder carcinoma cell line growth inhibition [POLQ]
Details: for viability, T/C: stronger effect = lower value
Protocol: Multicellular complex tumor spheroid response to Polymerase (POL) inhibitors (novobiocin, ART-558, RP6685) in combination with a variety of drugs and investigational agents in selected tumor cell lines
The POL inhibitors (novobiocin, ART-558, and RP6685) were evaluated both individually and in combination with standard of care and investigational anticancer small molecules within a complex spheroid model of solid tumors. . Complex spheroids include a stromal component modeled by human endothelial cells (HUVEC) and fibroblasts modeled by human mesenchymal stem cells (MSCs). The concentration ranges selected for each drug and investigational agent were based upon clinically achievable concentrations if the clinical Cmax of the agent was known.
Compounds. The drugs and investigational agents: novobiocin (NSC847541), ART-558 (NSC835418), RP-6685 (NSC848927), peposertib (NSC802822), ceralasertib (NSC780249), elimusertib (NSC800525), camonsertib (NSC841442), AZD-1390 (NSC803789), olaparib (NSC753686), talazoparib (NSC767125), rucaparib (NSC756644), sotorasib (NSC818433), MRTX-1133 (NSC836407), SN-38 (NSC673596), topotecan (NSC609699), epotoside (NSC141540), doxorubicin (NSC123127), gemcitabine (NSC613327), 5-fluorouracil (NSC19893), paclitaxel (NSC125973), vemurafenib (NSC761431), MSA-2 (NSC828583), SN-011 (NSC837082), adavosertib (NSC754352), prexasertib (NSC758257), carboplatin (NSC241240) and oxaliplatin (NSC266046), were obtained from the National Cancer Institute (NCI) Developmental Therapeutics Program Chemical Repository (21). The FDA-approved anticancer drug set is available from the Developmental Therapeutics Program at https://dtp.cancer.gov/organization/dscb/obtaining/. […] The stock solutions were prepared in dimethyl sulfoxide (DMSO, Sigma-Aldrich, St. Louis, MO, cat. D2650), except for the platinum compounds which were prepared in saline (Quality Biological, Gaithersburg, MD, cat. 114-055-101), at 800-fold the tested concentration and stored at -70 degrees C prior to their use. All drugs and investigational agents were tested over a range starting from a high concentration at or near the clinical Cmax and decreasing in half-log increments. If the clinical Cmax for an agent had not been determined, the highest concentration tested was 10 microM, except for SN-38, which was tested at a high concentration of 1 microM.
Cell Culture. All cells were maintained in an incubator at 37 degrees C and 5% CO2 with 95% humidity. The PDC lines were cultured according to standard operating procedures established by the NCI PDMR (https://pdmr.cancer.gov). Table 3 of the manuscript, lists the cell lines along with the number of the three cell types plated to form the mct-spheroids and media for tumor cell growth. After thawing, all PDC lines, except 997537-175-T-J1-PDC and 415267-285-R-J2-PDC, were cultured in Matrigel-coated flasks prepared with a working solution of 1X Ham's F-12 nutrient mix, without supplementation (Thermo Fisher Scientific, cat. 11765054), 100 U/mL penicillin-streptomycin (Thermo Fisher Scientific, cat. 15140122), and 2.5% Matrigel (Corning Inc., Corning, NY, cat. 354248) for the first three passages. The two PDC lines 997537-175-T-J1-PDC and 415267-285-R-J2-PDC were cultured on uncoated flasks. The 857933-349-R-J2-PDC line was cultured in 6C/Colon 1B media containing advanced DMEM/F-12 (Thermo Fisher Scientific, cat. 12634028), 10 mM HEPES (Thermo Fisher Scientific, cat. 15630080), 1X GlutaMAX supplement (Thermo Fisher Scientific, cat. 35050061), 0.1 mg/mL primocin (InvivoGen, San Diego, CA, cat. ant-pm-2), 10% defined fetal bovine serum, heat inactivated (HyClone Laboratories Inc., Logan, UT, cat. SH30070.03HI), 50% L-WRN conditioned media (ATCC, cat. CRL-3276), 1.25 mM N-Acetyl-L-cysteine (Sigma-Aldrich, cat. A9165), 10 mM nicotinamide (Sigma-Aldrich, cat. N0636), 1X B-27 supplement (Thermo Fisher Scientific, cat. 17504044), 1X N-2 supplement (Thermo Fisher Scientific, cat. […]

[1] = compound alone, run of 01/08/2024
[2] = compound alone, run of 01/19/2024
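Also: spheroids exposed to compounds for seven days before readout.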
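For viability, T/C in this document: 100% = DMSO vehicle control viability.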

For `CNCc1ccc(-c2[nH]c3cc(F)cc4c3c2CCNC4=O)cc1`, the viability, T/C (compound 0.0316 µM) was 92.6% and 94.5% and 97.7%, the viability, T/C (compound 0.1 µM) was 92% and 95.6% and 100% and the viability, T/C (compound 0.316 µM) was 96.7% and 92.8% and 89.4%. For the same molecule, the viability, T/C (compound 1 µM) was 96.9% and 93.2% and 104%, the viability, T/C (compound 3.16 µM) was 95.2% and 98.2% and 99.7% and the viability, T/C (compound 10 µM) was 77.3% and 88.2% and 74.5%. It also gave an IC50 (curve of compound) of over 10 µM.

`COC1C(OC(N)=O)C(O)C(Oc2ccc3c(O)c(NC(=O)c4ccc(O)c(CC=C(C)C)c4)c(=O)oc3c2C)OC1(C)C` (stereo unspecified) was tested, and the viability, T/C (compound 0.0316 µM) was 98.8% [middle of 13 runs], the viability, T/C (compound 0.1 µM) was 99.7% [middle of 13 runs] and the viability, T/C (compound 1 µM) was 103% [middle of 13 runs]. The viability, T/C (compound 3.16 µM) was 100% [middle of 12 runs] and the IC50 [1] was over 10 µM.

`COc1cc(C2c3cc4c(cc3C(OC3OC5COC(C)OC5C(O)C3O)C3COC(=O)C23)OCO4)cc(OC)c1O` (stereo unspecified) was tested, and the viability, T/C (compound 0.0316 µM) was 99.9% and 95.2% and 109%, the viability, T/C (compound 0.1 µM) was 86.2% and 78.2% and 89.1% and the viability, T/C (compound 0.316 µM) was 85.3% and 96.4% and 83.7%. For the same molecule, the viability, T/C (compound 1 µM) was 63.6% and 76.7% and 66.2%, the viability, T/C (compound 3.16 µM) was 61.5% and 67.9% and 60% and the viability, T/C (compound 10 µM) was 47.5% and 57.3% and 49.9%. The IC50 (curve of compound) was 8.18 µM and > 10 µM.

In the case of `COc1cc2cc(C(=O)CCC(=O)O)sc2cc1OC`, the viability, T/C (compound 0.0316 µM) is reported as 95.8% and 105% and 103%, the viability, T/C (compound 0.1 µM) is reported as 112% and 90% and 89.7% and the viability, T/C (compound 0.316 µM) is reported as 91.7% and 102% and 96.7%. For the same molecule, the viability, T/C (compound 1 µM) was 99.3% and 108% and 87.7%, the viability, T/C (compound 3.16 µM) was 105% and 96.4% and 83.4% and the viability, T/C (compound 10 µM) was 104% and 107% and 93.9%. The IC50 (curve of compound) was over 10 µM.

For `COc1ccc([C@@H](O)c2cc(-c3ncnc4cc(N5CCOCC5)ccc34)c(F)cc2Cl)nn1`, the viability, T/C (compound 0.0316 µM) was 99% and 86.7% and 96.3%, the viability, T/C (compound 0.1 µM) was 73% and 81.7% and 93.3% and the viability, T/C (compound 0.316 µM) was 81.5% and 83.3% and 94%. For the same molecule, the viability, T/C (compound 1 µM) was 62.8% and 61.7% and 69%, the viability, T/C (compound 3.16 µM) was 48.3% and 47.9% and 48.8% and the viability, T/C (compound 10 µM) was 30.1% and 35.8% and 31.2%. The IC50 (curve of compound) was 2.61 µM and 2.43 µM and 2.72 µM.

With `COc1cccc(OCCCN)c1-c1cc(Nc2cnc(C#N)cn2)n[nH]1` the viability, T/C (compound 0.00316 µM) was 98.3% and 89.8% and 106%, the viability, T/C (compound 0.01 µM) was 69.9% and 82.7% and 93.2% and the viability, T/C (compound 0.0316 µM) was 52.6% and 55.5% and 49%. For the same molecule, the viability, T/C (compound 0.1 µM) was 40.9% and 44.4% and 45.3%, the viability, T/C (compound 0.316 µM) was 34.2% and 34.5% and 41.7% and the viability, T/C (compound 1 µM) was 25% and 30.4% and 35.5%. For the same molecule, the IC50 (curve of compound) was 0.0406 µM and 0.057 µM and 0.0312 µM.

In the case of `COc1cccc2c1C(=O)c1c(O)c3c(c(O)c1C2=O)CC(O)(C(=O)CO)CC3OC1CC(N)C(O)C(C)O1` (stereo unspecified), the viability, T/C (compound 0.0316 µM) is reported as 61.8% and 66.7% and 64%, the viability, T/C (compound 0.1 µM) is reported as 56.7% and 69.8% and 55.9% and the viability, T/C (compound 0.316 µM) is reported as 51.5% and 57.7% and 47.7%. For the same molecule, the viability, T/C (compound 1 µM) was 10.3% and 22.2% and 5.53%, the viability, T/C (compound 3.16 µM) was 0.4% and 0.3% and 0.29% and the viability, T/C (compound 10 µM) was 0.27% and 0.25% and 0.3%. For the same molecule, the IC50 (curve of compound) was 0.328 µM and 0.412 µM and 0.248 µM.

`Cc1cccc(N(C)C(=O)C2C(O)CCN2c2nc(C)cc(C(F)(F)F)c2C#N)c1` (stereo unspecified) was tested, and the viability, T/C (compound 0.0316 µM) was 102% [middle of 13 runs], the viability, T/C (compound 0.316 µM) was 99.2% [middle of 13 runs] and the viability, T/C (compound 1 µM) was 100% [middle of 13 runs]. For the same molecule, the viability, T/C (compound 3.16 µM) was 101% [middle of 13 runs], the viability, T/C (compound 10 µM) was 105% [middle of 13 runs] and the IC50 [1] was over 10 µM. For the same molecule, the IC50 [2] was over 10 µM.

`Cn1ncnc1[C@H]1c2n[nH]c(=O)c3cc(F)cc(c23)N[C@@H]1c1ccc(F)cc1` was tested, and the viability, T/C (compound 0.000316 µM) was 94.7% and 100% and 90.6%, the viability, T/C (compound 0.001 µM) was 85.8% and 100% and 85.9% and the viability, T/C (compound 0.00316 µM) was 87.6% and 95.6% and 95.1%. For the same molecule, the viability, T/C (compound 0.01 µM) was 83.5% and 90% and 77.4%, the viability, T/C (compound 0.0316 µM) was 70% and 80.9% and 83.5% and the viability, T/C (compound 0.1 µM) was 65.7% and 71.8% and 69.7%. For the same molecule, the IC50 (curve of compound) was over 0.1 µM.

`Nc1ccc(C#CCN(C(=O)Cc2ncc(C(F)(F)F)cc2C(F)(F)F)c2ccc(F)cc2)nn1` was tested, and the viability, T/C (compound 0.0316 µM) was 102% [middle of 13 runs], the viability, T/C (compound 0.1 µM) was 98% [middle of 13 runs] and the viability, T/C (compound 0.316 µM) was 102% [middle of 13 runs]. For the same molecule, the viability, T/C (compound 1 µM) was 99.9% [middle of 13 runs], the viability, T/C (compound 3.16 µM) was 104% [middle of 13 runs] and the viability, T/C (compound 10 µM) was 112% [middle of 13 runs]. For the same molecule, the IC50 [2] was over 10 µM.

`Nc1ccn(C2OC(CO)C(O)C2(F)F)c(=O)n1` (stereo unspecified) was tested, and the viability, T/C (compound 0.0316 µM) was 32.7% and 33% and 32.6%, the viability, T/C (compound 0.1 µM) was 30.6% and 36.1% and 29.3% and the viability, T/C (compound 0.316 µM) was 32.9% and 36.7% and 46.2%. The viability, T/C (compound 1 µM) was 39.7% and 42.4% and 33.9%, the viability, T/C (compound 3.16 µM) was 36.2% and 41.4% and 31.7% and the viability, T/C (compound 10 µM) was 26.8% and 42.1% and 30.9%. For the same molecule, the IC50 (curve of compound) was under 0.0316 µM.

`O=C(Nc1ccc(O)c(NS(=O)(=O)c2ccc(F)cc2)c1)c1ccc(-c2ccccc2)cc1` was tested, and the viability, T/C (compound 0.0316 µM) was 87.6% and 93.4% and 107%, the viability, T/C (compound 0.1 µM) was 107% and 88.9% and 92.8% and the viability, T/C (compound 0.316 µM) was 91.6% and 80.3% and 81.8%. The viability, T/C (compound 1 µM) was 89.6% and 92.9% and 90.9%, the viability, T/C (compound 3.16 µM) was 99.8% and 81.8% and 76.2% and the viability, T/C (compound 10 µM) was 75.6% and 74.6% and 59%. For the same molecule, the IC50 (curve of compound) was over 10 µM.

`O=C(c1cc(Cc2n[nH]c(=O)c3ccccc23)ccc1F)N1CCN(C(=O)C2CC2)CC1` was tested, and the viability, T/C (compound 0.0316 µM) was 88.1% and 93% and 83.1%, the viability, T/C (compound 0.1 µM) was 82.1% and 100% and 97.3% and the viability, T/C (compound 0.316 µM) was 92.3% and 104% and 81.8%. For the same molecule, the viability, T/C (compound 1 µM) was 87.4% and 87.5% and 87.9%, the viability, T/C (compound 3.16 µM) was 91% and 82.4% and 88.4% and the viability, T/C (compound 10 µM) was 58.5% and 61.9% and 69.8%. The IC50 (curve of compound) was over 10 µM.

In the case of `O=c1[nH]cc(F)c(=O)[nH]1`, the viability, T/C (compound 0.0316 µM) is reported as 108% and 102% and 103%, the viability, T/C (compound 0.1 µM) is reported as 89.4% and 107% and 89.8% and the viability, T/C (compound 0.316 µM) is reported as 109% and 106% and 81.9%. For the same molecule, the viability, T/C (compound 1 µM) was 88.9% and 89.1% and 97.6%, the viability, T/C (compound 3.16 µM) was 79.5% and 85.3% and 88.3% and the viability, T/C (compound 10 µM) was 65.1% and 78.3% and 64.8%. The IC50 (curve of compound) was over 10 µM.
